Test results: US20090264485A1, “Pyrazole Derivatives, Their Manufacture and Their Use as Pharmaceutical Agents” (priority 2005, published 2009)

Assays:
HEK293 cells = test: CellTiter-Glo Luminescent Cell Viability Assay in HEK293 cells; type: cell-based; conditions: Homo sapiens, 168 h, 7 days incubation, CellTiter-Glo luminescence
Description: CellTiter-Glo™ Assay in HEK293 Cells
The CellTiter-Glo™ Luminescent Cell Viability Assay (Promega) is a homogeneous method of determining the number of viable cells in culture based on quantitation of the ATP present, which signals the presence of metabolically active cells.
HEK293 cells (human embryonic kidney cell line transformed by Adenovirus 5 fragments, ATCC-No. CRL 1573) were cultivated in Dulbecco's Modified Eagle Medium (DMEM) with Glutamax™ (Invitrogen, 31966-021), 5% Fetal Calf Serum (FCS, Sigma Cat-No. F4135 (FBS)), 100 Units/ml penicillin/100 μg/ml streptomycin (=Pen/Strep from Invitrogen Cat. No. 15140). For the assay the cells were seeded in 384 well plates, 5000 cells per well, in the same medium. The next day the test compounds were added in various concentrations ranging from 3 μM to 0.00015 μM (10 concentrations, 1:3 diluted). After 7 days the CellTiter-Glo™ assay was done according to the instructions of the manufacturer (CellTiter-Glo™ Luminescent Cell Viability Assay, from Promega). In brief: the cell-plate was equilibrated to room temperature for approximately 30 minutes and than the CellTiter-Glo™ reagent was added. The contents were carefully mixed for 15 minutes to induce cell lysis. After 45 minutes the luminescent signal was measured in Victor 2, (scanning multiwell spectrophotometer, Wallac).
• Medium: Dulbecco's Modified Eagle Medium (DMEM) with Glutamax™ (Invitrogen, 31966-021), 5% Fetal Calf Serum (FCS, Sigma Cat-No. F4135 (FBS)), Pen/Strep (Invitrogen Cat. No. 15140). • HEK293 (ATCC-No. CRL 1573): 5000 cells in 60 μl per well of 384 well plate (Greiner 781098, white plates) • Incubate 24 h at 37° C., 5% CO2
In general the dilution steeps are 1:3 • a) Add 8 μl of 10 mM stock solution of compound to 72 μl DMSO • b) dilute 9×1:3 (always 30 μl to 60 μl DMSO) in this DMSO dilution row (results in 10 wells with concentrations from 1000 μM to 0.06 μM) • c) dilute each concentration 1:4.8 (10 μl compound dilution to 38 μl medium) • d) dilute each concentration 1:10 (10 μl compound dilution to 90 μl medium) • e) add 10 μl of every concentration to 60 μl medium in the cell plate • resulting in final concentration of DMSO: 0.3% in every well • and resulting in final concentration of compounds from 3 μM to 0.00015 μM • Incubate 168 h (7 days) at 37° C., 5% CO2
• Add 30 μl CellTiter-Glo™ Reagent/well, • shake 15 minutes at room temperature • incubate further 45 minutes at room temperature without shaking.
• Victor 2 scanning multiwell spectrophotometer (Wallac), Luminescence mode • Determine IC50 with XL-fit (XLfit software (ID Business Solution Ltd., Guilford, Surrey, UK)).

SMILES	IC50 (HEK293 cells)	melting point
Cc1cc(OCc2coc(/C=C/c3ccc(C(F)(F)F)cc3)n2)ccc1COCCc1ccnn1C [Example 2, 4-{3-Methyl-4-[2-(E)-(2-methyl-2H-pyrazol-3-yl)-ethoxymethyl]-phenoxymethyl}-2-[2-(4-trifluoromethyl-phenyl)-vinyl]-oxazole]	5 to 250 nM	96 to 97 °C
Cc1cc(OCc2coc(/C=C/c3ccc(Cl)cc3)n2)ccc1C[S+]([O-])CCc1ccnn1C (centres unmarked) [Example 6, 2-[2-(E)-(4-Chloro-phenyl)-vinyl]-4-{3-methyl-4-[2-(2-methyl-2H-pyrazol-3-yl)-ethanesulfinylmethyl]-phenoxymethyl}-oxazole]	5 to 250 nM	169 to 171 °C
Cc1cc(OCc2coc(/C=C/c3ccc(Cl)cc3)n2)ccc1COCCc1ccnn1C [Example 3, 2-[2-(E)-(4-Chloro-phenyl)-vinyl]-4-{3-methyl-4-[2-(2-methyl-2H-pyrazol-3-yl)-ethoxymethyl]-phenoxymethyl}-oxazole]	5 to 250 nM	106 to 107 °C
Cc1cc(OCc2coc(/C=C/c3ccc(OC(F)(F)F)cc3)n2)ccc1COCCc1ccnn1C [Example 1, 4-{3-Methyl-4-[2-(E)-(2-methyl-2H-pyrazol-3-yl)-ethoxymethyl]-phenoxymethyl}-2-[2-(4-trifluoromethoxy-phenyl)-vinyl]-oxazole]	95 nM	77 to 78 °C
Cn1nccc1CC[S+]([O-])Cc1ccc(OCc2coc(/C=C/c3ccc(OC(F)(F)F)cc3)n2)cc1 (centres unmarked) [Example 8, 4-{4-[2-(2-Methyl-2H-pyrazol-3-yl)-ethanesulfinylmethyl]-phenoxymethyl}-2-[2-(E)-(4-trifluoromethoxy-phenyl)-vinyl]-oxazole]	250 to 1000 nM	144 to 146 °C
Cc1cc(OCc2coc(/C=C/c3ccc(OC(F)(F)F)cc3)n2)ccc1C[S+]([O-])CCc1ccnn1C (centres unmarked) [Example 5, 4-{3-Methyl-4-[2-(2-methyl-2H-pyrazol-3-yl)-ethanesulfinylmethyl]-phenoxymethyl}-2-[2-(E)-(4-trifluoromethoxy-phenyl)-vinyl]-oxazole]		138 to 139 °C
Cn1nccc1CCS(=O)(=O)Cc1ccc(OCc2coc(/C=C/c3ccc(C(F)(F)F)cc3)n2)cc1 [Example 10, 4-{4-[2-(2-Methyl-2H-pyrazol-3-yl)-ethanesulfonylmethyl]-phenoxymethyl}-2-[2-(4-trifluoromethyl-phenyl)-vinyl]-oxazole]		204 °C
Cn1nccc1CC[S+]([O-])Cc1ccc(OCc2coc(/C=C/c3ccc(C(F)(F)F)cc3)n2)cc1 (centres unmarked) [Example 9, 4-{4-[2-(2-Methyl-2H-pyrazol-3-yl)-ethanesulfinylmethyl]-phenoxymethyl}-2-[2-(E)-(4-trifluoromethyl-phenyl)-vinyl]-oxazole]	250 to 1000 nM	172 to 174 °C
Cc1cc(OCc2coc(/C=C/c3ccc(C(F)(F)F)cc3F)n2)ccc1COCCc1ccnn1C [Example 4, 2-[2-(E)-(2-Fluoro-4-trifluoromethyl-phenyl)-vinyl]-4-{3-methyl-4-[2-(2-methyl-2H-pyrazol-3-yl)-ethoxymethyl]-phenoxymethyl}-oxazole]	5 to 250 nM	
Cc1cc(OCc2coc(/C=C/c3ccc(C(F)(F)F)cc3)n2)ccc1C[S+]([O-])CCc1ccnn1C (centres unmarked) [Example 7, 4-{3-Methyl-4-[2-(2-methyl-2H-pyrazol-3-yl)-ethanesulfinylmethyl]-phenoxymethyl}-2-[2-(E)-(4-trifluoromethyl-phenyl)-vinyl]-oxazole]	5 to 250 nM	161 to 162 °C
